Assay results as given in patent publication US9085576B2 (AMGEN INC., priority 2013, dated 2015).
Structures can show the parent of a compound that is named as a salt.

Columns and labels:
[1] = target: Beta Secretase enzyme (BACE) (Homo sapiens (Human), UniProt P56817); experiment: In vitro enzymatic BACE FRET assay; assay type: biochemical; conditions: read-out: BACE1 Enzyme assay IC50
[2] = target: Cathepsin D (Cat D) (Homo sapiens (Human), UniProt P07339); experiment: In vitro enzymatic Cathepsin D (Cat D) FRET assay; assay type: biochemical; conditions: read-out: CatD IC50
Cathepsin D (Cat D), sequence (P07339 65-412, species assumed): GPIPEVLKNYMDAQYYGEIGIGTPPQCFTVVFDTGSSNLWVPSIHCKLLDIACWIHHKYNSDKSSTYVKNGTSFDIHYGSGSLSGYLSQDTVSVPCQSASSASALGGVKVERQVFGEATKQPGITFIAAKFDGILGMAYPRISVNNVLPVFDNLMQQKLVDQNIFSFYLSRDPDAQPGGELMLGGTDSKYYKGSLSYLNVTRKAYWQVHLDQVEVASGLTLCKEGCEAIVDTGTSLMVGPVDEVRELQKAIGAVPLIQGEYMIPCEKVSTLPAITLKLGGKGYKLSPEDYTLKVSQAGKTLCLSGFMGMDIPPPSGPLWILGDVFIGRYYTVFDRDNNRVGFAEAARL

[3] = target: BACE (Homo sapiens (Human), UniProt P56817); experiment: In vitro BACE cell-based assay (Aβ40 in conditioned medium, sandwich ELISA)
BACE, sequence (P56817 46-501, species assumed): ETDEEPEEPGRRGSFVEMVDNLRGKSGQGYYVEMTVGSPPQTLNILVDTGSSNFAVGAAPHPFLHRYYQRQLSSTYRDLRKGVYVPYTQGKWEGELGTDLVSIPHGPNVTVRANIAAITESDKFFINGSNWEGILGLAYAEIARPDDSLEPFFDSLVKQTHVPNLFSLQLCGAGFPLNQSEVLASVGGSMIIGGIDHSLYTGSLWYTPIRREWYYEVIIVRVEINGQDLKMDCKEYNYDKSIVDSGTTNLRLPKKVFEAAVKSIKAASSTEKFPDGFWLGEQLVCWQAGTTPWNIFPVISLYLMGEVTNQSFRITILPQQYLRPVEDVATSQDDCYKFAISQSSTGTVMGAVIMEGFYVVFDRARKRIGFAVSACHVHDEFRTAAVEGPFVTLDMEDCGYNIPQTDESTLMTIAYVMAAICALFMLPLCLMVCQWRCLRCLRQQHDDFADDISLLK

Beta Secretase enzyme (BACE), sequence (P56817 46-501): as the sequence (P56817 46-501, species assumed) above

| SMILES | IC50 [1] | IC50 [2] | IC50 [3] |
| --- | --- | --- | --- |
| C#CCOc1cnc(C(=O)Nc2cnc(F)c([C@@]3(CF)N=C(N)O[C@@H]4C[C@@H]43)c2)cn1 [Example 206, N-(5-((1R,5S,6R)-3-amino-5-(fluoromethyl)-2-oxa-4-azabicyclo[4.1.0]hept-3-en-5-yl)-6-fluoropyridin-3-yl)-5-(prop-2-yn-1-yloxy)pyrazine-2-carboxamide] | 9.4 nM | 311 µM | 0.0064 µM |
| NC1=N[C@@](c2cc(NCC#Cc3ccccc3)ccc2F)(C(F)F)[C@H]2C[C@H]2O1 [Example 369, (1R,5S,6R)-5-(difluoromethyl)-5-(2-fluoro-5-((3-phenylprop-2-yn-1-yl)amino)phenyl)-2-oxa-4-azabicyclo[4.1.0]hept-3-en-3-amine] | 6640 nM | 19.2 µM | 3.02 µM |
| CC#CCOc1ccc(C(=O)Nc2ccc(F)c([C@@]3(C(F)F)N=C(N)O[C@@H]4C[C@@H]43)c2)nc1 [Example 233, N-(3-((1R,5S,6R)-3-amino-5-(difluoromethyl)-2-oxa-4-azabicyclo[4.1.0]hept-3-en-5-yl)-4-fluorophenyl)-5-(but-2-yn-1-yloxy)picolinamide] | 5.7 nM | 244 µM | 0.024 µM |
| N#Cc1cnc2c(Nc3ccc(F)c([C@@]4(CF)N=C(N)O[C@@H]5C[C@@H]54)c3)nccc2c1 [Example 346, 8-((3-((1R,5S,6R)-3-amino-5-(fluoromethyl)-2-oxa-4-azabicyclo[4.1.0]hept-3-en-5-yl)-4-fluorophenyl)amino)-1,7-naphthyridine-3-carbonitrile] | 53.9 nM | 205 µM | 0.0176 µM |
| COc1cnc2c(Nc3ccc(F)c([C@@]4(C)N=C(N)O[C@@H]5C[C@@H]54)c3)nccc2c1 [Example 340, (1R,5S,6R)-5-(2-fluoro-5-((3-methoxy-1,7-naphthyridin-8-yl)amino)phenyl)-5-methyl-2-oxa-4-azabicyclo[4.1.0]hept-3-en-3-amine] | 506 nM | > 400 µM | 0.0796 µM |
| NC1=N[C@@](c2cc(NC(=O)c3ccc(C#CC4CC4)cn3)ccc2F)(C(F)F)[C@H]2C[C@H]2O1 [Example 405, N-(3-((1R,5S,6R)-3-amino-5-(difluoromethyl)-2-oxa-4-azabicyclo[4.1.0]hept-3-en-5-yl)-4-fluorophenyl)-5-(cyclopropylethynyl)picolinamide] | 23.7 nM | 399 µM | 0.215 µM |
| Cc1cc(C#N)cnc1C(=O)Nc1cc(F)c(F)c([C@@]2(CF)N=C(N)O[C@@H]3C[C@@H]32)c1 (stereo in doubt) [Example 50] | 26600 nM | 1750 µM | > 15.6 µM |
| CC#Cc1cnn(-c2ccc(F)c([C@@]3(C(F)F)N=C(N)O[C@@H]4C[C@@H]43)c2)c1 [Example 434, (1R,5S,6R)-5-(difluoromethyl)-5-(2-fluoro-5-(4-(prop-1-yn-1-yl)-1H pyrazol-1-yl)phenyl)-2-oxa-4-azabicyclo[4.1.0]hept-3-en-3-amine] | 1210 nM | 386 µM | 0.561 µM |
| C[C@@H](Nc1ccc(F)c([C@@]2(C(F)F)N=C(N)O[C@@H]3C[C@@H]32)c1)c1ccc(Cl)cn1 (mixture of isomers) [Example 378, (1R,5S,6R)-5-(5-(((R)-1-(5-chloropyridin-2-yl)ethyl)amino)-2-fluorophenyl)-5-(difluoromethyl)-2-oxa-4-azabicyclo[4.1.0]hept-3-en-3-amine and (1R,5S,6R)-5-(5-(((S)-1-(5-chloropyridin-2-yl)ethyl)amino)-2-fluorophenyl)-5-(difluoromethyl)-2-oxa-4-azabicyclo[4.1.0]hept-3-en-3-amine] | 13800 nM | 77.4 µM | 2.13 µM |
| NC1=N[C@@](c2cc(NC(=O)C3CCCCC3)ccc2F)(C(F)F)[C@H]2C[C@H]2O1 [Example 239, N-(3-((1R,5S,6R)-3-amino-5-(difluoromethyl)-2-oxa-4-azabicyclo[4.1.0]hept-3-en-5-yl)-4-fluorophenyl) cyclohexanecarboxamide] | > 40000 nM | > 400 µM | > 15.6 µM |
| NC1=N[C@](CF)(c2nc(NC(=O)c3ccc(Cl)cn3)ccc2F)[C@H]2C[C@H]2O1 (stereo in doubt) [Example 105, N-(6-((1R,5S,6R)-3-amino-5-(fluoromethyl)-2-oxa-4-azabicyclo[4.1.0]hept-3-en-5-yl)-5-fluoropyridin-2-yl)-5-chloropicolinamide] | 39300 nM | 1620 µM | 2.1 µM |
| Cc1cccnc1C(=O)Nc1ccc(F)c([C@@]2(C(F)F)N=C(N)O[C@@H]3C[C@@H]32)c1 [Example 293] | 271 nM | 1660 µM | 0.601 µM |
| NC1=N[C@@](c2cc(NC(=O)c3ccc(Cl)cn3)ccc2Cl)(C(F)F)[C@H]2C[C@H]2O1 (racemic) [Example 97, N-(3-(((1R,S), (5S,R), (6R,S))-3-amino-5-(difluoromethyl)-2-oxa-4-azabicyclo[4.1.0]hept-3-en-5-yl)-4-chlorophenyl)-5-chloropicolinamide trifluoroacetate] | 37.1 nM | 1280 µM | 0.0505 µM |
| CC#Cc1cncc(-c2ccc(F)c([C@@]3(C(F)F)N=C(N)O[C@@H]4C[C@@H]43)c2)c1 [Example 429, (1R,5S,6R)-5-(difluoromethyl)-5-(2-fluoro-5-(5-(prop-1-yn-1-yl)pyridin-3-yl)phenyl)-2-oxa-4-azabicyclo[4.1.0]hept-3-en-3-amine] | 1050 nM | 72.9 µM | 3.36 µM |
| COc1cnc(C(=O)Nc2ccc(F)c([C@@]3(C(F)F)N=C(N)O[C@@H]4C[C@@H]43)c2)nc1 [Example 103, N-(3-((1R,5S,6R)-3-amino-5-(difluoromethyl)-2-oxa-4-azabicyclo[4.1.0]hept-3-en-5-yl)-4-fluorophenyl)-5-methoxypyrimidine-2-carboxamide] | 122 nM | 763 µM | 0.0574 µM |
| N#Cc1cnc2c(Nc3ccc(Cl)c([C@@]4(CF)N=C(N)O[C@@H]5C[C@@H]54)c3)ncc(F)c2c1 [Example 363, 8-((3-((1R,5S,6R)-3-amino-5-(fluoromethyl)-2-oxa-4-azabicyclo[4.1.0]hept-3-en-5-yl)-4-chlorophenyl)amino)-5-fluoro-1,7-naphthyridine-3-carbonitrile] | 68.2 nM | > 44.4 µM | 0.13 µM |
| NC1=N[C@@](c2cc(NCC3CCC3)ccc2F)(C(F)F)[C@H]2C[C@H]2O1 [Example 368, (1R,5S,6R)-5-(5-((cyclobutylmethyl)amino)-2-fluorophenyl)-5-(difluoromethyl)-2-oxa-4-azabicyclo[4.1.0]hept-3-en-3-amine] | 2740 nM | 121 µM | 1.33 µM |
| NC1=N[C@@](c2cc(NCc3ccc(Cl)cn3)ccc2F)(C(F)F)[C@H]2C[C@H]2O1 [Example 377, (1R,5S,6R)-5-(5-(((5-chloropyridin-2-yl)methyl)amino)-2-fluorophenyl)-5-(difluoromethyl)-2-oxa-4-azabicyclo[4.1.0]hept-3-en-3-amine] | 2840 nM | 177 µM | 1.11 µM |
| Cc1cc(Cl)cnc1C(=O)Nc1ccc(F)c([C@@]2(CF)N=C(N)O[C@@H]3C[C@@H]32)c1 [Example 198, N-(3-((1R,5S,6R)-3-amino-5-(fluoromethyl)-2-oxa-4-azabicyclo[4.1.0]hept-3-en-5-yl)-4-fluorophenyl)-5-chloro-3-methylpicolinamide] | 33.8 nM | 349 µM | 0.0152 µM |
| Cc1cc(OCC#N)cnc1C(=O)Nc1ccc(F)c([C@@]2(C(F)F)N=C(N)O[C@@H]3C[C@@H]32)c1 [Example 184, N-(3-((1R,5S,6R)-3-amino-5-(difluoromethyl)-2-oxa-4-azabicyclo[4.1.0]hept-3-en-5-yl)-4-fluorophenyl)-5-(cyanomethoxy)-3-methylpicolinamide] | 358 nM | 1090 µM | 0.62 µM |
| N#Cc1cnc(C(=O)Nc2ccc(F)c([C@@]3(C(F)F)N=C(N)O[C@@H]4C[C@@H]43)c2)c(CO)c1 [Example 396, N-(3-((1R,5S,6R)-3-amino-5-(difluoromethyl)-2-oxa-4-azabicyclo[4.1.0]hept-3-en-5-yl)-4-fluorophenyl)-5-cyano-3-(hydroxymethyl)picolinamide] | 17 nM | 198 µM | 0.151 µM |
| Cn1ccc(C(=O)Nc2ccc(F)c([C@@]3(C(F)F)N=C(N)O[C@@H]4C[C@@H]43)c2)cc1=O [Example 249, N-(3-((1R,5S,6R)-3-amino-5-(difluoromethyl)-2-oxa-4-azabicyclo[4.1.0]hept-3-en-5-yl)-4-fluorophenyl)-1-methyl-2-oxo-1,2-dihydropyridine-4-carboxamide] | > 40000 nM | 1590 µM | > 15.6 µM |
| NC1=N[C@@](c2cc(NCC3CC3)ccc2F)(C(F)F)[C@H]2C[C@H]2O1 [Example 379, (1R,5S,6R)-5-(5-((cyclopropylmethyl)amino)-2-fluorophenyl)-5-(difluoromethyl)-2-oxa-4-azabicyclo[4.1.0]hept-3-en-3-amine] | 1410 nM | 188 µM | 0.564 µM |
| Cc1cc(OC(F)F)cnc1C(=O)Nc1ccc(Cl)c([C@]2(C(F)F)N=C(N)O[C@H]3C[C@H]32)c1 [Example 213, N-(3-((1S,5R,6S)-3-amino-5-(difluoromethyl)-2-oxa-4-azabicyclo[4.1.0]hept-3-en-5-yl)-4-chlorophenyl)-5-(difluoromethoxy)-3-methylpicolinamide] | 2420 nM | 1130 µM | 1.31 µM |
| N#Cc1ccc(C(=O)Nc2ccc(Cl)c([C@]3(CF)N=C(N)O[C@H]4C[C@H]43)c2)nc1 [Example 278, N-(3-((1 S,5R,6S)-3-amino-5-(fluoromethyl)-2-oxa-4-azabicyclo[4.1.0]hept-3-en-5-yl)-4-chlorophenyl)-5-cyanopicolinamide] | 9510 nM | 904 µM | 2.64 µM |
